Experimental data from article PMC10828988, “Tuning the Softness of the Pendant Arms and the Polyazamacrocyclic Backbone to Chelate the ^203Pb/^212Pb Theranostic Pair” (Inorganic Chemistry, 2024).
Marks after values point to notes of the source that are not given here.

Assays:
[1] = Formation kinetics of Pb2+ complexes (UV-Vis / 1H NMR); format: physicochemical; conditions: pH = 5, equimolar ligand and metal concentrations (10^–4 M), room temperature
Experimental: The formation kinetics of the Pb^2+ complexes was evaluated at room temperature by UV–Vis or ^1H NMR spectroscopy. A typical experiment was performed by mixing equimolar amounts of metal and ligand solutions (final concentrations: 1.0 × 10^–4 M for UV–Vis, 1.0 × 10^–3 M for ^1H NMR) in buffered media at pH = 2 (HCl 10^–2 M), pH = 3.7 (formic/formiate buffer), pH = 5 (acetic/acetate buffer), and pH = 7.4 (2-[4-(2-hydroxyethyl)piperazin-1-yl]ethanesulfonic acid, i.e., HEPES, buffer). To avoid the formation of PbCO3 (Ks = 7.4 × 10^–14), water was boiled before each measurement.
The electronic spectra were collected in the 200–800 nm range at different time points using a Cary 60 UV–Visible spectrophotometer (Agilent) equipped with a 1 cm path length quartz cell. The complexation reactions were monitored by the increase in the absorption peaks diagnostic of the Pb^2+-ligand complex formation at the characteristic wavelength (Table S2) over time. ^1H NMR spectra were recorded on a 400 MHz Bruker Avance III HD spectrometer. All data were collected […] with Topspin 3.5 using standard Bruker processing parameters with Topspin 4.1.1 software. […] Water suppression was carried out with the excitation sculpting pulse scheme.[38]

[2] = Out-of-cell UV-Vis spectrophotometric titrations (stability constants, pPb); format: physicochemical
Experimental: The ionic strength (I) was fixed to 0.15 M using sodium nitrate (NaNO3) as background electrolytes. All of the experiments described below were repeated at least in triplicate.
UV–Vis spectrophotometric titrations were carried out by the out-of-cell method in the pH range of 0–12 at T = 25 °C. […] A Mettler Toledo pH meter with a glass electrode was used to measure the pH. […] In highly acidic solutions (pH ≪ 2), the pH was computed from the acid concentration (pH = −logCH^+). After the pH adjustment, the vials were sealed, heated to T = 60 °C to ensure complete Pb^2+ complexation, and cooled to room temperature. The absorption spectra were recorded using the same apparatus described for the kinetic measurements (vide supra). The equilibrium was reached when no variations of the electronica spectra or the pH were detected.
All equilibrium data were processed using the least-squares fitting program PITMAP as described in our previous works.[2],[4],[28] The overall equilibrium constants refer to the general equilibria pM^m+ + qH^+ + rL^l– ⇆ MpHqLr^pm+q–rl, where M^m+ represent the metal ion and L^l– represents the deprotonated ligand, and are designated as logβ (βpqr = [MpLqHr]/[M]^p[L]^q[H]^r). The refinements of log β included the previously determined ligand protonation constants and the Pb^2+ hydrolysis products whose equilibrium constants were fixed to the literature values.[27],[39] […] The errors quoted are the standard deviations of the overall stability constants calculated by the PITMAP program.

[3] = Direct in-cell pH-potentiometric titrations; format: physicochemical; conditions: pH-potentiometry, I = 0.15 M NaNO3, T = 25 °C
Experimental: Nitric acid (HNO3) solutions were prepared at ∼10^–1 M by dilution of the concentrated acid (Aristar - VWR Chemicals, 69%) and standardized against sodium carbonate (Aldrich, 99.95–100.5%). Carbonate-free sodium hydroxide (NaOH) solutions were prepared at ∼10^–1 M from commercial pellets (Fluka, 99% min) using freshly boiled ultrapure water and standardized using the previously standardized acid. […] Pb^2+ solutions were preprepared from analytical-grade nitrate salt (Pb(NO3)2, Sigma-Aldrich, 99%) and standardized using complexometric titrations with ethylenediaminetetraacetic acid (EDTA) with xylenole orange as an indicator. The ionic strength (I) was fixed to 0.15 M using sodium nitrate (NaNO3) as background electrolytes. All of the experiments described below were repeated at least in triplicate.
Direct (in-cell) pH-potentiometric titrations were carried out with an automated Metrohm 765 Dosimat titrating system using a Metrohm 713 pH meter. […]
All equilibrium data were processed using the least-squares fitting program PITMAP as described in our previous works.[2],[4],[28] […] The refinements of log β included the previously determined ligand protonation constants and the Pb^2+ hydrolysis products whose equilibrium constants were fixed to the literature values.[27],[39] […] The errors quoted are the standard deviations of the overall stability constants calculated by the PITMAP program.

[4] = Concentration-dependent radiolabeling with [203Pb]Pb2+ (iTLC); conditions: for radiochemical incorporation (RCI) of [^203Pb]Pb^2+: 1 h
Experimental: Water replaced the ligands in the negative control. All of the radiolabeling for the cyclen-based derivatives was performed at room temperature and monitored at 5 min and 1 h time points whereas heating at T = 80 °C was also employed for TACD3S, TRI4S, and TE4S. All radiolabeling reactions were repeated at least in triplicate.
Radiochemical incorporation (RCI) was determined via instant thin-layer chromatography (iTLC) with silicic acid (SA)-impregnated paper TLC plates (iTLC-SA, Agilent Technologies, USA). Ethylenediamine tetraacetic acid (EDTA, 50 mM, pH = 5.5) was used as the eluent. […] The iTLC plates were analyzed on an Eckert & Ziegler AR-2000 TLC scanner, and all the data were processed with Eckert & Ziegler WinScan software.

[5] = set-up: method as in doi:10.1016/0010-8545(91)80023-7; conditions: T = 25 °C, nonfunctionalized macrocycles; cited from earlier work
[6] = calculated at CPb^2+ = 10^–6 M, Cligand = 10^–5 M, pH = 7.4

Compound | time to reach equilibrium of Pb^2+ complexation [1] | log β, Pb^2+ + L ⇋ [PbL] ([2]; UV–Vis spectrophotometric titrations, I = 0.15 M NaNO3, T = 25 °C) | pPb = −log[Pb^2+]free [2, 6] | pPb* (−log of free Pb^2+ plus hydrolysis products) [2, 6] | log β, Pb^2+ + H^+ + L^2– ⇋ [PbHL]^+ [3] | log β, Pb^2+ + L^2– ⇋ [PbL] [3] | effect of a change in reaction time on RCI ([4]; 5 min vs 1 h, pH = 7, room temperature) | radiochemical incorporation (RCI) of [^203Pb]Pb^2+ ([4]; ligand 10^–4 M, pH = 7, room temperature) [%] | radiochemical incorporation (RCI) of [^203Pb]Pb^2+ ([4]; ligand 10^–5 M, pH = 7, room temperature) [%] | radiochemical incorporation (RCI) of [^203Pb]Pb^2+ ([4]; ligand 10^–6 M, pH = 7, room temperature) [%] | radiochemical incorporation (RCI) of [^203Pb]Pb^2+ ([4]; ligand 10^–7 M, pH = 7, room temperature) [%] | radiochemical incorporation of [^203Pb]Pb^2+ ([4]; room temperature, 5 min reaction time, chelator concentration as low as 10^–5 M) | logK Pb^2+-macrocycle [5]
CSCCN1CCN(CC(=O)O)CCN(CCSC)CCN(CC(=O)O)CC1 [DO2A2S, 1,7-bis[2-(methylsulfanyl)ethyl]-1,4,7,10-tetraazacyclododecane-4,10-diacetic acid] | practically instantaneous | 18.3 ± 0.1 | 15.7 | 15.4 | 20.89 ± 0.07 ^c | 18.2 ± 0.1 | no effect | > 90 | > 90 | 68 ± 1 | 56 ± 4 | quantitative radiochemical incorporation | –
C1CNCCNCCNCCN1 [cyclen, 1,4,7,10-tetrazacyclododecane] | – | – | – | – | – | – | – | – | – | – | – | – | 15.9
